By EC50 is commonly meant the concentration that produces a half-maximal response.

The structures appear in SMILES notation.

The results in this text go back to patent US7989462B2, “4-arylamin-or-4-heteroarylamino-quinazolines and analogs as activators of caspases and inducers of apoptosis and the use thereof” (Myrexis, Inc., priority 2003, dated 2011).

In this assay the test system is T-47D. The assay can be described thus: Caspase cascade activation in T-47D solid tumor cells (fluorogenic N-(Ac-DEVD)-N'-ethoxycarbonyl-R110 substrate). Format: cell-based, Human. Particulars: T-47D (24 hr); for EC50: Homo sapiens, T47D, read-out: Caspase Potency EC50; for Caspase Activity Ratio: ratio of net RFU of test compound to that of control samples. As to the method: Human breast cancer cell lines T-47D and DLD-1 were grown according to media component mixtures designated by American Type Culture Collection+10% FCS (Invitrogen Corporation), in a 5% CO2-95% humidity incubator at 37° C. T-47D and DLD-1 cells were maintained at a cell density between 50 and 80% confluency at a cell density of 0.1 to 0.6×10^6 cells/mL. Cells were harvested at 600×g and resuspended at 0.65×10^6 cells/mL into appropriate media+10% FCS. An aliquot of 22.5 μL of cells was added to a well of a 384-well microtiter plate containing 2.5 μL of a 10% DMSO in RPMI-1640 media solution containing 0.16 to 100 μM of (2-chloro-quinazolin-4-yl)-(4-dimethylaminophenyl)-methylamine or other test compound (0.016 to 10 μM final). An aliquot of 22.5 μL of cells was added to a well of a 384-well microtiter plate containing 2.5 μL of a 10% DMSO in RPMI-1640 media solution without test compound as the control sample. […] After incubation, the samples were removed from the incubator and 25 μL of a solution containing 14 μM of N-(Ac-DEVD)-N′-ethoxycarbonyl-R110 fluorogenic substrate (Cytovia, Inc.; WO99/18856), 20% sucrose (Sigma), 20 mM DTT (Sigma), 200 mM NaCl (Sigma), 40 mM Na PIPES buffer pH 7.2 (Sigma), and 500 μg/mL lysolecithin (Calbiochem) was added. The samples were mixed by agitation and incubated at room temperature. Using a fluorescent plate reader (Model SPECTRAfluor Plus, Tecan), an initial reading (T=0) was made approximately 1-2 min after addition of the substrate solution, employing excitation at 485 nm and emission at 530 nm, to determine the background fluorescence of the control sample. After the 3 h incubation, the samples were read for fluorescence as above (T=3 h).
The Relative Fluorescence Unit values (RFU) were used to calculate the sample readings as follows: RFU(T=3h)−Control RFU(T=0)=Net RFU(T=3h)
The activity of caspase cascade activation was determined by the ratio of the net RFU value for (2-chloro-quinazolin-4-yl)-(4-dimethylaminophenyl)-methylamine or other test compounds to that of control samples. The EC50 (nM) was determined by a sigmoidal dose-response calculation (Prism 3.0, GraphPad Software Inc.).

Take `COc1ccc(N(C)c2nc(NC(C)=O)nc3ccccc23)cc1` [Example 41, (2-Acetamido-quinazolin-4-yl)-(4-methoxy-phenyl)-methylamine]: the EC50 came out at 27 nM and the “Caspase Activity Ratio” value came to 3.5.

Turning to `COC(=O)Nc1ccc2nc(C)nc(N(C)c3ccc(OC)cc3)c2c1` [Example 33, (6-methoxycarbonylamino-2-methyl-quinazolin-4-yl)-(4-methoxy-phenyl)-methylamine], the EC50 is 293 nM and the “Caspase Activity Ratio” value is given as 6.7.

Take `COc1ccc(Nc2nc(C)nc3ccccc23)cc1OC` [Example 24, (3,4-Dimethoxy-phenyl)-(2-methyl-quinazolin-4-yl)-amine]: the EC50 is greater than 10000 nM and the “Caspase Activity Ratio” value is given as 1.3.

With `CNc1nc(N(C)c2ccc(OC)cc2)c2cc([N+](=O)[O-])ccc2n1` [Example 17, (2-Methylamino-6-nitroquinazolin-4-yl)-(4-methoxyphenyl)-methylamine], the EC50 was 619 nM and the “Caspase Activity Ratio” value amounted to 3.7.

Consider `COc1ccc(N(C)c2nc(C)nc3ccc([N+](=O)[O-])cc23)cc1OC` [Example 36, (3,4-Dimethoxy-phenyl)-(2-methyl-6-nitro-quinazolin-4-yl)-methylamine], for which the EC50 stood at 1870 nM and the “Caspase Activity Ratio” value is on record as 4.0.

Turning to `COc1ccc(N(C)c2nc(N(C)C)nc3ccc([N+](=O)[O-])cc23)cc1` [Example 14, (2-Dimethylamino-6-nitroquinazolin-4-yl)-(4-methoxyphenyl)-methylamine], the EC50 amounted to 2360 nM and the “Caspase Activity Ratio” value stood at 4.2.

Take `Cc1nc(Nc2ccc(N(C)C)cc2)c2ccccc2n1` [Example 22, (4-Dimethylamino-phenyl)-(2-methyl-quinazolin-4-yl)-amine]: the EC50 was determined as 2860 nM and the “Caspase Activity Ratio” value is given as 8.7.

With `CSc1ccc(Nc2nc(C)nc3ccccc23)cc1` [Example 20, (4-Methylthio-phenyl)-(2-methyl-quinazolin-4-yl)-amine], the EC50 was greater than 10000 nM and the “Caspase Activity Ratio” value worked out at 1.1.

Take `CNc1nc(N(C)c2ccc(OC)cc2)c2cc(N)ccc2n1` [Example 19, (6-Amino-2-methylamino-quinazolin-4-yl)-(4-methoxyphenyl)-methylamine]: the EC50 worked out at 214 nM and the “Caspase Activity Ratio” value worked out at 4.3.

Regarding `COc1ccc(Nc2ncnc3ccccc23)cc1OC` [Example 35, (3,4-Dimethoxy-phenyl)-(quinazolin-4-yl)-amine], the EC50 is greater than 10000 nM and the “Caspase Activity Ratio” value came to 1.0.

Turning to `COc1ccc(N(C)c2nc(C)nc3ccc(N(C)C)cc23)cc1` [Example 30, (6-Dimethylamino-2-methyl-quinazolin-4-yl)-(4-methoxy-phenyl)-methylamine], the EC50 is 382 nM and the “Caspase Activity Ratio” value worked out at 6.4.

Regarding `COc1ccc(N(C)c2nc(C)nc3ccccc23)cc1OC` [Example 25, (3,4-Dimethoxy-phenyl)-(2-methyl-quinazolin-4-yl)-methylamine], the EC50 was determined as 9 nM and the “Caspase Activity Ratio” value is reported as 10.2.

Take `COc1ccc(N(C)c2nc(C)nc3ccc(NC(C)=O)cc23)cc1` [Example 31, (6-Acetamido-2-methyl-quinazolin-4-yl)-(4-methoxy-phenyl)-methylamine]: the EC50 was 796 nM and the “Caspase Activity Ratio” value is 3.2.

As to `COc1ccc(N(C)c2nc(NN)nc3ccccc23)cc1` [Example 32, (2-Hydrazinyl-quinazolin-4-yl)-(4-methoxy-phenyl)-methylamine], the EC50 worked out at 68 nM and the “Caspase Activity Ratio” value is given as 7.4.

Consider `COc1ccc(N(C)c2nc(Cl)nc3ccc([N+](=O)[O-])cc23)cc1` [Example 11, (2-Chloro-6-nitroquinazolin-4-yl)-(4-methoxyphenyl)-methylamine], for which the EC50 was 5080 nM and the “Caspase Activity Ratio” value is reported as 4.0.

As to `CN(C)c1ccc(N(C)c2nc(Cl)nc3ccccc23)cc1` [Example 13, (2-Chloro-quinazolin-4-yl)-(4-dimethylaminophenyl)-methylamine], the EC50 was 4 nM and the “Caspase Activity Ratio” value was determined as 4.2.

Consider `CC(=O)Nc1ccc(N(C)c2nc(C)nc3ccccc23)cc1` [Example 1, (4-Acetamido-phenyl)-(2-methyl-quinazolin-4-yl)-methylamine], for which the EC50 came out at 47 nM and the “Caspase Activity Ratio” value amounted to 8.1.

Turning to `CNc1ccc(N(C)c2nc(C)nc3ccccc23)cc1` [Example 7, (2-Methyl-quinazolin-4-yl)-(4-methylamino-phenyl)-methylamine], the EC50 stood at 18 nM and the “Caspase Activity Ratio” value came to 3.4.

Turning to `COc1ccc(N(C)c2nc(N(C)C(C)=O)nc3ccccc23)cc1` [Example 28, (4-Methoxy-phenyl)-(2-N-methylacetamido-quinazolin-4-yl)-methylamine], the EC50 is 7 nM and the “Caspase Activity Ratio” value is 4.0.

As for `Cc1nc(N(C)c2ccc(N(C)C)cc2)c2cc(N)ccc2n1` [Example 12, (6-Amino-2-methyl-quinazolin-4-yl)-(4-dimethylaminophenyl)-methylamine], the EC50 amounted to 33 nM and the “Caspase Activity Ratio” value worked out at 3.8.

As to `COC(=O)N(C)c1ccc(N(C)c2nc(C)nc3ccccc23)cc1` [Example 8, (2-Methyl-quinazolin-4-yl)-[4-(N-methyl-methoxycarbonylamino)-phenyl]-methylamine], the EC50 came to 558 nM and the “Caspase Activity Ratio” value turned out to be 8.0.

Consider `CC(=O)N(C)c1nc(N(C)c2ccc(N(C)C)cc2)c2ccccc2n1` [Example 16, [2-(N-Methyl-acetamido)-quinazolin-4-yl]-(4-dimethylaminophenyl)-methylamine], for which the EC50 was 14 nM and the “Caspase Activity Ratio” value is on record as 2.4.

Consider `COC(=O)N(C)c1nc(N(C)c2ccc(OC)cc2)c2ccccc2n1` [Example 29, (4-Methoxy-phenyl)-(2-N-methyl-methoxycarbonylamino-quinazolin-4-yl)-methylamine], for which the EC50 worked out at 34 nM and the “Caspase Activity Ratio” value is given as 9.6.

For `COc1ccc(N(C)c2nc(N(C)C)nc3ccc(N)cc23)cc1` [Example 18, (6-Amino-2-dimethylamino-quinazolin-4-yl)-(4-methoxyphenyl)-methylamine], the EC50 worked out at 221 nM and the “Caspase Activity Ratio” value turned out to be 4.7.
